Test results: PubChem BioAssay (NCI)
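Method: 48-hour compound exposure of cells in 96-well plates, five concentrations, linear interpolation of endpoints. TGI is the concentration that stops growth completely.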

Assays:
Test in all cases: inhibition of tumour cell growth, NCI panel, 48 h
NCI-H23 lung = tested on: NCI-H23 lung
TK-10 renal = tested on: TK-10 renal
HL-60(TB) leukemia = tested on: HL-60(TB) leukemia
U251 CNS = tested on: U251 CNS
CCRF-CEM leukemia = tested on: CCRF-CEM leukemia
BT-549 breast = tested on: BT-549 breast
HCT-15 colon = tested on: HCT-15 colon
MDA-MB-231 breast = tested on: MDA-MB-231 breast
MDA-N = tested on: MDA-N
786-0 renal = tested on: 786-0 renal
MOLT-4 leukemia = tested on: MOLT-4 leukemia
SF-268 CNS = tested on: SF-268 CNS
UACC-62 melanoma = tested on: UACC-62 melanoma
EKVX NSCLC = tested on: EKVX NSCLC
SN12C renal = tested on: SN12C renal
SK-MEL-2 melanoma = tested on: SK-MEL-2 melanoma
NCI-H522 lung = tested on: NCI-H522 lung
HCC-2998 colon = tested on: HCC-2998 colon
SR leukemia = tested on: SR leukemia
SNB-75 CNS = tested on: SNB-75 CNS
MDA-MB-435 = tested on: MDA-MB-435
SK-OV-3 ovarian = tested on: SK-OV-3 ovarian
NCI/ADR-RES ovarian = tested on: NCI/ADR-RES ovarian
NCI-H226 lung = tested on: NCI-H226 lung
HOP-62 NSCLC = tested on: HOP-62 NSCLC
COLO 205 colon = tested on: COLO 205 colon
HCT-116 colon = tested on: HCT-116 colon
CAKI-1 renal = tested on: CAKI-1 renal
OVCAR-3 ovarian = tested on: OVCAR-3 ovarian
OVCAR-8 ovarian = tested on: OVCAR-8 ovarian
MALME-3M melanoma = tested on: MALME-3M melanoma
M14 melanoma = tested on: M14 melanoma
HT29 colon = tested on: HT29 colon
IGROV1 ovarian = tested on: IGROV1 ovarian
DU-145 prostate = tested on: DU-145 prostate
A498 renal = tested on: A498 renal
PC-3 prostate = tested on: PC-3 prostate
HS 578T breast = tested on: HS 578T breast
RXF 393 renal = tested on: RXF 393 renal
SF-295 CNS = tested on: SF-295 CNS
T-47D breast = tested on: T-47D breast
NCI-H460 lung = tested on: NCI-H460 lung
SK-MEL-5 melanoma = tested on: SK-MEL-5 melanoma
OVCAR-5 ovarian = tested on: OVCAR-5 ovarian
MCF7 breast = tested on: MCF7 breast
K-562 leukemia = tested on: K-562 leukemia
A549 NSCLC = tested on: A549 NSCLC
SF-539 CNS = tested on: SF-539 CNS
UACC-257 melanoma = tested on: UACC-257 melanoma
UO-31 renal = tested on: UO-31 renal
HOP-92 NSCLC = tested on: HOP-92 NSCLC
SW-620 colon = tested on: SW-620 colon
ACHN renal = tested on: ACHN renal
SK-MEL-28 melanoma = tested on: SK-MEL-28 melanoma
SNB-19 CNS = tested on: SNB-19 CNS
KM12 colon = tested on: KM12 colon
LOX IMVI melanoma = tested on: LOX IMVI melanoma

Clc1cc2nnn(C3CCCO3)c2cc1Cl (configuration not stated)
TGI (NCI-H23 lung): > 100 µM
TGI (TK-10 renal): > 100 µM
TGI (HL-60(TB) leukemia): > 100 µM
TGI (U251 CNS): > 100 µM
TGI (CCRF-CEM leukemia): > 100 µM
TGI (BT-549 breast): > 100 µM
TGI (HCT-15 colon): > 100 µM
TGI (MDA-MB-231 breast): > 100 µM
TGI (MDA-N): > 100 µM
TGI (786-0 renal): > 100 µM
TGI (MOLT-4 leukemia): > 100 µM
TGI (SF-268 CNS): > 100 µM
TGI (UACC-62 melanoma): > 100 µM
TGI (EKVX NSCLC): > 100 µM
TGI (SN12C renal): > 100 µM
TGI (SK-MEL-2 melanoma): > 100 µM
TGI (NCI-H522 lung): > 100 µM
TGI (HCC-2998 colon): > 100 µM
TGI (SR leukemia): > 100 µM
TGI (SNB-75 CNS): > 100 µM
TGI (MDA-MB-435): > 100 µM
TGI (SK-OV-3 ovarian): > 100 µM
TGI (NCI/ADR-RES ovarian): > 100 µM
TGI (NCI-H226 lung): > 100 µM
TGI (HOP-62 NSCLC): > 100 µM
TGI (COLO 205 colon): > 100 µM
TGI (HCT-116 colon): > 100 µM
TGI (CAKI-1 renal): > 100 µM
TGI (OVCAR-3 ovarian): > 100 µM
TGI (OVCAR-8 ovarian): > 100 µM
TGI (MALME-3M melanoma): > 100 µM
TGI (M14 melanoma): > 100 µM
TGI (HT29 colon): > 100 µM
TGI (IGROV1 ovarian): > 100 µM
TGI (DU-145 prostate): > 100 µM
TGI (A498 renal): > 100 µM
TGI (PC-3 prostate): > 100 µM
TGI (HS 578T breast): > 100 µM
TGI (RXF 393 renal): > 100 µM
TGI (SF-295 CNS): > 100 µM
TGI (T-47D breast): > 100 µM
TGI (NCI-H460 lung): > 100 µM
TGI (SK-MEL-5 melanoma): > 100 µM
TGI (OVCAR-5 ovarian): > 100 µM
TGI (MCF7 breast): > 100 µM
TGI (K-562 leukemia): > 100 µM
TGI (A549 NSCLC): > 100 µM
TGI (SF-539 CNS): > 100 µM
TGI (UACC-257 melanoma): > 100 µM

CC1C2(C)OCC(C#N)(C(=N)O2)C1(C#N)C#N (configuration not stated)
TGI (NCI-H23 lung): 86.9 µM
TGI (TK-10 renal): > 100 µM
TGI (HL-60(TB) leukemia): 38.2 µM
TGI (U251 CNS): 40.4 µM
TGI (CCRF-CEM leukemia): > 100 µM
TGI (UO-31 renal): > 100 µM
TGI (BT-549 breast): > 100 µM
TGI (HCT-15 colon): 26.3 µM
TGI (MDA-MB-231 breast): 42.8 µM
TGI (MDA-N): 41.7 µM
TGI (786-0 renal): 55.3 µM
TGI (MOLT-4 leukemia): > 100 µM
TGI (HOP-92 NSCLC): 48.9 µM
TGI (SF-268 CNS): 74.3 µM
TGI (UACC-62 melanoma): 76.1 µM
TGI (EKVX NSCLC): 52.7 µM
TGI (SW-620 colon): > 100 µM
TGI (SN12C renal): 29.1 µM
TGI (SK-MEL-2 melanoma): 33.5 µM
TGI (SNB-75 CNS): > 100 µM
TGI (MDA-MB-435): > 100 µM
TGI (SK-OV-3 ovarian): > 100 µM
TGI (NCI/ADR-RES ovarian): > 100 µM
TGI (NCI-H226 lung): > 100 µM
TGI (COLO 205 colon): 27.8 µM
TGI (HCT-116 colon): 42.1 µM
TGI (CAKI-1 renal): 25 µM
TGI (OVCAR-3 ovarian): 28.4 µM
TGI (ACHN renal): > 100 µM
TGI (OVCAR-8 ovarian): 84.2 µM
TGI (MALME-3M melanoma): 51.8 µM
TGI (M14 melanoma): 39.2 µM
TGI (HT29 colon): 35.3 µM
TGI (IGROV1 ovarian): > 100 µM
TGI (DU-145 prostate): 74.3 µM
TGI (A498 renal): > 100 µM
TGI (PC-3 prostate): 83.3 µM
TGI (HS 578T breast): 74.4 µM
TGI (RXF 393 renal): 65.7 µM
TGI (SF-295 CNS): > 100 µM
TGI (SK-MEL-28 melanoma): 97.6 µM
TGI (T-47D breast): 30.2 µM
TGI (NCI-H460 lung): 42.2 µM
TGI (SNB-19 CNS): > 100 µM
TGI (KM12 colon): > 100 µM
TGI (SK-MEL-5 melanoma): 23.4 µM
TGI (OVCAR-5 ovarian): 85.6 µM
TGI (LOX IMVI melanoma): 40.4 µM
TGI (MCF7 breast): 52.3 µM
TGI (K-562 leukemia): > 100 µM
TGI (A549 NSCLC): > 100 µM
TGI (SF-539 CNS): 57.3 µM
TGI (UACC-257 melanoma): 71.2 µM
